Columns and labels:
NIH3T3 background cells = experiment: Cell proliferation, SRB assay, NIH3T3 background cells as control; assay type: cell-based; settings: Mus musculus, NIH3T3, 72 h, read-out: inhibition rate (%) on proliferation of NIH3T3 background cells
Procedure: NIH3T3/TPR-Met cells in the logarithmic growth phase and NIH3T3 background cells were seeded in a 96-well microcuture plate at 90111_, per well and cultivated overnight, followed by addition of 104 of the compound at different concentrations. Three concentrations were set, and for each concentration, the test was carried out in triplicate wells. 72 h later, the culture medium was removed. The residue was fixed by precooled 10% TCA at 4° C. for 1 h, washed by distilled water for 5 times and dried at room temperature. After that, 4 mg/mL of sulforodamine B (SRB) in 1% glacial acetic acid was added to each well (1004 per well) for staining at room temperature for 15 min. The excess dye was removed by washed with 1% glacial acetic acid for 5 times and dried in air. At last, 150 μL of Tris-HCL solution (10 mM Tris, pH 10.0) was added to each well. OD values were measured on a multi-well spectrophotometer at […].

NIH3T3/TPR-Met cells = experiment: Cell proliferation mediated by c-Met, SRB assay, NIH3T3/TPR-Met cells; assay type: cell-based; settings: Mus musculus, NIH3T3, 72 h, read-out: inhibition rate (%) on proliferation of NIH3T3/TPR-Met cells
Procedure: Three concentrations were set, and for each concentration, the test was carried out in triplicate wells. 72 h later, the culture medium was removed. The residue was fixed by precooled 10% TCA at 4° C. for 1 h, washed by distilled water for 5 times and dried at room temperature. […] The excess dye was removed by washed with 1% glacial acetic acid for 5 times and dried in air. At last, 150 μL of Tris-HCL solution (10 mM Tris, pH 10.0) was added to each well.

c-Met tyrosine kinase = c-Met tyrosine kinase (Homo sapiens, UniProt P08581); experiment: c-Met kinase activity on molecular level (ELISA, Poly(Glu,Tyr)4:1 substrate); assay type: biochemical; settings: ATP 5 μM, 37° C., 1 h
c-Met tyrosine kinase, sequence (P08581 25-1390): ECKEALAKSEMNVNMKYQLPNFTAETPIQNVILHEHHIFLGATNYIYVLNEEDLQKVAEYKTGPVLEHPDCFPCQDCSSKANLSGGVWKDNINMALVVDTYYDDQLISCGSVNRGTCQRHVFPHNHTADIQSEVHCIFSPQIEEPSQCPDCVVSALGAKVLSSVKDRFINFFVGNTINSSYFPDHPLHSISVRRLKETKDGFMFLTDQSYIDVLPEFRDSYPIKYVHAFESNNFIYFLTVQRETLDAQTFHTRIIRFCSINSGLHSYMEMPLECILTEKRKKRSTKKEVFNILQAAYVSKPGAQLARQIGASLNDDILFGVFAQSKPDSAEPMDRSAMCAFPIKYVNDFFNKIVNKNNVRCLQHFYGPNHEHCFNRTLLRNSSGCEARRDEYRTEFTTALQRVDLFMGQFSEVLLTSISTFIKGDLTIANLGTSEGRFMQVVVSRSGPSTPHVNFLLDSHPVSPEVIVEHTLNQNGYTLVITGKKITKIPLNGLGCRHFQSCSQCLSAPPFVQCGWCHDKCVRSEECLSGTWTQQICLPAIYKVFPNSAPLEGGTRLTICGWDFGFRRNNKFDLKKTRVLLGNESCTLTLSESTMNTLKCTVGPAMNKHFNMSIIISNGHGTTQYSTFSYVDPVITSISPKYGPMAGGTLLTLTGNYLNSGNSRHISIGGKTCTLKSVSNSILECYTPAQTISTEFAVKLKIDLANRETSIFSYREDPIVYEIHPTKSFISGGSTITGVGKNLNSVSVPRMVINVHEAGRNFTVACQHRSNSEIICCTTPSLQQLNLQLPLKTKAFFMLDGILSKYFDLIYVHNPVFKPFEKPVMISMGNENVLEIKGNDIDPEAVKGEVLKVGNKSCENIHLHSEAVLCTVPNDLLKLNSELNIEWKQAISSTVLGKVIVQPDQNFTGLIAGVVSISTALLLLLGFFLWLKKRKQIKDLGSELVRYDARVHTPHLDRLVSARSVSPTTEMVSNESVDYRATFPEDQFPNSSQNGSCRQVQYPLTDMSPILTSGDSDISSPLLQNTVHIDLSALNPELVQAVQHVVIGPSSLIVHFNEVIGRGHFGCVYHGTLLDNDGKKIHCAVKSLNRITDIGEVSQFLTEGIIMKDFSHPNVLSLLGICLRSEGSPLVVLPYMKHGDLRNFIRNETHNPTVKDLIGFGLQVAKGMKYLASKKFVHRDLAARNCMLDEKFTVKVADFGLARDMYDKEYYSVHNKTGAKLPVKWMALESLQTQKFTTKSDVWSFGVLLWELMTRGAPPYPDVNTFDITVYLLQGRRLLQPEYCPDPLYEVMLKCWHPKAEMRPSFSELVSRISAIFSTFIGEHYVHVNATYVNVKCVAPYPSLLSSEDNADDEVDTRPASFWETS
Procedure: Poly(Glu, Tyr)4:1 as an enzyme substrate was diluted by potassium ion-free PBS (10 mM, sodium phosphate buffer, 150 mM NaCl, pH7.2-7.4) into a solution of 20 μg/ml. […] After the liquid in wells was removed, the plate was washed three time by T-PBS (PBS solution containing 0.1% Tween-20) at 200 μl/well, 5 min for each time. The ELISA plate was then dried in an oven at 37° C. for 1-2 h.
Each well was added with 50 μL of ATP solution diluted by reaction buffer (50 mM HEPES pH 7.4, 50 mM MgCl2, 0.5 mM MnCl2, 0.2 mM Na3VO4, 1 mM DTT) at a final concentration of 5 μM. Compound diluted by 1% DMSO into a suitable concentration was added at 10 μl/well and then c-Met tyrosine kinase protein diluted by 40 μl of reaction buffer was added. The plate was placed on a shaking table (100 rpm) at 37° C. and incubated for 1 h, and then washed three times by T-PBS. For each assay, triplicate wells without enzyme were used as blank control and wells having the corresponding DMSO concentration without compound were used as negative control. Primary antibody PY99 (p-Tyr (PY99), Cell Signaling Technology, 1:1000 diluted in 5 mg/mL BSA T-PBS) was added at 100 μl/well. The plate was then placed on a shaking table at 37° C. and incubated for 0.5 h, and washed by T-PBS. Secondary antibody horseradish peroxidase-conjugated goat anti-mouse IgG (1:2000 diluted in 5 mg/mL BSA T-PBS) was added at 100 μl/well. The plate was then placed on a shaking table at 37° C. for 0.5 h and washed three times by T-PBS. 2 mg/mL of OPD developer (diluted by a 0.1M citric acid-sodium citrate buffer (pH=5.4) containing 0.03% of H2O2) was added at 100 μl/well, and the plate was kept in dark at 25° C. for 1-10 min. OPD was ultrasonically dissolved and the developer solution was prepared just before use. 2 M of H2SO4 was added at 50 μl/well to stop the reaction. The plate was read using a wavelength regulated multi-well spectrophotometer (SPECTRA MAX 190) at 490 nm.
The inhibition rate was calculated according to the following equation:
Inhibition rate (%)=(1−(ODcompound−ODblank)/(ODnegative−ODblank))×100%
IC50 value was calculated through a four-parameter fit according to the inhibition curve.

Row | Structure (SMILES) | inhibition at 1 µM (NIH3T3 background cells) [%] | inhibition at 10 µM (NIH3T3 background cells) [%] | inhibition at 50 µM (NIH3T3 background cells) [%] | inhibition at 1 µM (NIH3T3/TPR-Met cells) [%] | inhibition at 10 µM (NIH3T3/TPR-Met cells) [%] | inhibition at 50 µM (NIH3T3/TPR-Met cells) [%] | IC50 (c-Met tyrosine kinase) [nM]
1 | c1ccc(COc2ccc(-c3cnc4nnc(Cc5ccc6ncccc6c5)n4n3)cc2)cc1 [Compound I-2, 3-(6-quinolylmethyl)-6-(4-benzyloxyphenyl)-[1,2,4]triazolo[4,3-b][1,2,4]triazine] | 16.2 | 28.4 | 33.1 |  |  |  | 
2 | CCCn1cc(-c2cnc3nnc(Cc4c[nH]c5ccccc45)n3n2)cn1 [Compound I-9, 3-(3-indolylmethyl)-6-[(1-propyl)-4-pyrazolyl]-[1,2,4]triazolo[4,3-b][1,2,4]triazine] | 17.8 | 22.7 | 37.3 | 5 | 9.4 | 67.5 | 223
3 | Brc1ccc(-c2cnc3nnc(Cc4ccc5ncccc5c4)n3n2)cc1 [Compound I-17, 3-(6-quinolylmethyl)-6-(4-bromophenyl)-[1,2, 4]triazolo[4,3-b][1,2,4]triazine] | 24.9 | 35.9 | 34.9 |  |  |  | 
4 | c1ccc(COc2ccc(-c3cnc4nnc(Cc5c[nH]c6ccccc56)n4n3)cc2)cc1 [Compound I-18, 3-(3-indolylmethyl)-6-(4-bnzyloxyphenyl)-[1,2,4]triazolo[4,3-b][1,2,4]triazine] | 17.5 | 20.8 | 28.7 |  |  |  | 
5 | CC(C)(C)OC(=O)N1CCC(n2cc(-c3cnc4nnc(C(F)(F)c5ccc6ncccc6c5)n4n3)cn2)CC1 [Compound I-20, 3-[(6-quinolyl)difluoromethyl]-6-[1-(1-tert-butoxycarbonyl-4-piperidyl)-4-pyrazolyl]-[1,2,4] triazolo[4,3-b][1,2,4]triazine] | 18.8 | 25.8 | 38.6 | 81.2 | 87.8 | 86.5 | 7.9
6 | FC(F)(c1ccc2ncccc2c1)c1nnc2ncc(-c3cnn(C4CCNCC4)c3)nn12 [Compound I-21, 3-[(6-quinolyl)difluoromethyl]-6-[1-(4-piperidyl)-4-pyrazolyl]-[1,2,4]triazolo[4,3-b][1,2,4] triazine] | 12 | 25.5 | 28.4 | 6 | 76.8 | 85.1 | 81.6
7 | FC(F)(c1ccc2ncccc2c1)c1nnc2ncc(-c3ccc(OCc4ccccc4)cc3)nn12 [Compound I-24, 3-[(6-quinolyl)difluoromethyl]-6-(4-benzyloxy-phenyl)-[1,2,4]triazolo[4,3-b][1,2,4]triazine] | 16.9 | 23.6 | 32.8 | 83.5 | 87.7 | 87.2 | 2.9
8 | COc1ccc2c(OCc3nnc4ncc(-c5ccc(Cl)cc5)nn34)ccnc2c1 [II-2, 3-[(7-methoxy-4-quinolyl)oxymethyl]-6-(4-chlorophenyl)-[1,2,4]triazolo[4,3-b][1,2,4]triazine] |  | 21 |  |  | 79 |  | 0.37
9 | COc1ccc2c(OCc3nnc4ncc(-c5ccc(Br)cc5)nn34)ccnc2c1 [II-3, 3-[(7-methoxy-4-quinolyl)oxymethyl]-6-(4-bromophenyl)-[1,2,4]triazolo[4,3-b][1,2,4]triazine] |  | 33.8 |  |  | 77.3 |  | 0.23
10 | COc1ccc2c(OCc3nnc4ncc(-c5cccs5)nn34)ccnc2c1 [II-4, 3-[(7-methoxy-4-quinolyl)oxymethyl]-6-(2-thienyl)-[1,2,4]triazolo[4,3-b][1,2,4]triazine] |  | 0 |  |  | 80.6 |  | 20.1
11 | COC(=O)c1ccc(-c2cnc3nnc(COc4ccnc5cc(OC)ccc45)n3n2)cc1 [II-5, 3-[(7-methoxy-4-quinolyl)oxymethyl]-6-(4-methoxyformylphenyl)-[1,2,4]triazolo[4,3-b][1,2, 4]triazine] |  | 6.2 |  |  | 79.2 |  | 0.78
